From ChEMBL document CHEMBL1147779, “N-Hydroxyurea as zinc binding group in matrix metalloproteinase inhibition: mode of binding in a complex with MMP-8” (Bioorg Med Chem Lett, 2006)

How the values were obtained:
[1] = biological target: 72 kDa type IV collagenase (Homo sapiens, UniProt P08253); assay: Inhibitory activity against MMP2
Stromelysin-1 [2] = biological target: T1, Stromelysin-1 (Homo sapiens, UniProt P08254); assay: Inhibitory activity against MMP3
Target sequence in this assay (P08254 whole entry): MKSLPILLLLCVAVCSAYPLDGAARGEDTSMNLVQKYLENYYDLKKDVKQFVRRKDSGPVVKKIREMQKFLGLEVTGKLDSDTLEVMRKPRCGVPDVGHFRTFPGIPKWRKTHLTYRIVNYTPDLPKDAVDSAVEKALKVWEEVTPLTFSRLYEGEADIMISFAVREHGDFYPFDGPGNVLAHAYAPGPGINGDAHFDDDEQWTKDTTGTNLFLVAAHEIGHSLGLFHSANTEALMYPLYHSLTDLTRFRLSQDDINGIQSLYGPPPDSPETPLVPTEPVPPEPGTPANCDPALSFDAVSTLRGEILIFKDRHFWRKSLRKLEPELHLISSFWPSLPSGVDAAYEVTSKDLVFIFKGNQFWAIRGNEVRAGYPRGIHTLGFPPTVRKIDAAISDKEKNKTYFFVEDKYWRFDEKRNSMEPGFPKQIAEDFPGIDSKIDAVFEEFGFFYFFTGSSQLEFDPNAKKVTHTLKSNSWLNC

Neutrophil collagenase = Neutrophil collagenase (Homo sapiens, UniProt P22894); assay: Inhibitory activity against MMP8
Sequence of Neutrophil collagenase (P22894 whole entry): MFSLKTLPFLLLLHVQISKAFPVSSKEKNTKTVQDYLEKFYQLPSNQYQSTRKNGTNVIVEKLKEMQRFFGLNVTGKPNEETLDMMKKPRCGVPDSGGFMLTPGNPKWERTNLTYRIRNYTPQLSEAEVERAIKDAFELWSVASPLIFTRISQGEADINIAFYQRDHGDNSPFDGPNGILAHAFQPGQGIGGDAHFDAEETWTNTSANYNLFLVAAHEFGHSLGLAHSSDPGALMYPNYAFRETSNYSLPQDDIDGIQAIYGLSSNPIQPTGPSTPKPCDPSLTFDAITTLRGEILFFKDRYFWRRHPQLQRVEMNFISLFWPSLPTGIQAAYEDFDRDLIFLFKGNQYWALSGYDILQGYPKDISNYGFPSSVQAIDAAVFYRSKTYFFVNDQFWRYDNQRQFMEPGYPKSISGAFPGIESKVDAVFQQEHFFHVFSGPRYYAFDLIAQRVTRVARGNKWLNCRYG

Stromelysin-1 [3] = biological target: T1, Stromelysin-1; assay: Inhibitory activity against MMP3 at 120 uM
Target sequence in this assay (P08254 100-477 limits assumed): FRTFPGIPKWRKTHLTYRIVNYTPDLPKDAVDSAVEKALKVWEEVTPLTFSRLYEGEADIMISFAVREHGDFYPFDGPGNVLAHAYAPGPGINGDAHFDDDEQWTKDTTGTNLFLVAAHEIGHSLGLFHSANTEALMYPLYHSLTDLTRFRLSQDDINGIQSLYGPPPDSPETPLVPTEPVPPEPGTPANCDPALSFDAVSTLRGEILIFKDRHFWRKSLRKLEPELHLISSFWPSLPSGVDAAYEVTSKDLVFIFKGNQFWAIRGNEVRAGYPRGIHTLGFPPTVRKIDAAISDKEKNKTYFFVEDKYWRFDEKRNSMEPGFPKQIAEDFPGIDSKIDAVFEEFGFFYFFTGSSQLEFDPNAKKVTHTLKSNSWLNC

Sequence of 72 kDa type IV collagenase (P08253 whole entry): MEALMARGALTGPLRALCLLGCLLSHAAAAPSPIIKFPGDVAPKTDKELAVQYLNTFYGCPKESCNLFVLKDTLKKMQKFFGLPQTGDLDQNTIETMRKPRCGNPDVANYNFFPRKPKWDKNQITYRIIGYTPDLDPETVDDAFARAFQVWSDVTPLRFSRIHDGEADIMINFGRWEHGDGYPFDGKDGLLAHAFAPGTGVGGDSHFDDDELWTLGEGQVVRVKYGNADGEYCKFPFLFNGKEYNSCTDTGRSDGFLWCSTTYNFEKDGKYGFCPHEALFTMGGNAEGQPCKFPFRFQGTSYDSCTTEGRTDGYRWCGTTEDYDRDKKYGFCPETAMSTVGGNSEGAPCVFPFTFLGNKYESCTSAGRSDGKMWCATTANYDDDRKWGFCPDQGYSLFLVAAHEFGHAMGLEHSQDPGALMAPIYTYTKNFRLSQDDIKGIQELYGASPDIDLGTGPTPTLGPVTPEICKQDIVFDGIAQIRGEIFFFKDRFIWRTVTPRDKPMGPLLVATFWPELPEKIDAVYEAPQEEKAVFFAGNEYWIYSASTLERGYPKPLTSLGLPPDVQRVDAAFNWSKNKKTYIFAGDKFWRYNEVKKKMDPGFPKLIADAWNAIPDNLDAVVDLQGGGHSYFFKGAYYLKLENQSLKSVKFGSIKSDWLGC

Structure (SMILES)	IC50 [1]	IC50 (Stromelysin-1 [2])	IC50 (Neutrophil collagenase)	inhibition (Stromelysin-1 [3])
CN(CCc1ccc(Oc2ccccc2)cc1)C(=O)NO	685 µM	380 µM	1000 µM	
O=C(NO)NCCc1ccc(Oc2ccccc2)cc1	> 380 µM	> 380 µM	> 380 µM	
CN(CCOc1ccc(-c2ccc(C#N)cc2)cc1)C(=O)NO	58 µM	200 µM		
N#Cc1ccc(-c2ccc(OCCNC(=O)NO)cc2)cc1	> 120 µM		> 120 µM	22%
